# Target: Human recombinant carboxy-terminal his-tagged LDHA (amino acids 2-332) (Homo sapiens, UniProt P00338)
# Experiment: LDHA enzyme inhibition assay (NADH fluorescence)
# Settings: LDHA IC50 (μM), 1 nM LDHA, NADH and pyruvate, stereochemistry of tested sample given
# Protocol: Test compounds were diluted in 100% DMSO with 1:3 serial dilutions. […] For the enzyme reaction, serially diluted compounds were added to a mixture of enzyme and NADH. […] Following the baseline read, pyruvate was added to the assay plates and the plates were read with excitation 340 nm and emission 480 nm for 10 minutes every 2.5 seconds. A suitable linear timeframe was selected (150-400 s) to calculate the slope of each concentration tested. The raw data were fitted to 4-parameter dose-response curves using the following equation:
# fit=(A+((B−A)/(1+((C/x)̂D))))
# inv=(C/((((B−A)/(y−A))−)̂(1/D)))
# res=(y−fit) • where A=minimum y, B=maximum y, C=50% y max, and D=slope factor.
# The curve bottom was set to the background rate (initial 5 second recording prior to addition of pyruvate) and curve top was set to no inhibitor (DMSO only) control wells rate.
# The compounds of the present invention were tested for their capacity to inhibit LDHA activity and activation as described in the enzyme inhibition assay described above.
row,IC50 [µM],Compound
1,0.355,"Cn1cnc(Nc2cccc(C3(c4ccsc4)CC(=O)C(Sc4ccccc4Cl)C(=O)N3)n2)n1 (stereo not shown) [Example 271, 3-((2-chlorophenyl)thio)-6-(6-((1-methyl-1H-1,2,4-triazol-3-yl)amino)pyridin-2-yl)-6-(thiophen-3-yl) piperidine-2,4-dione]"
2,0.459,"Cc1cc(Nc2cccc(C3(c4ccsc4)CC(=O)C(Sc4ccccc4Cl)C(=O)N3)n2)nn1C (stereo not shown) [Example 272, 3-((2-chlorophenyl)thio)-6-(6-((1,5-dimethyl-1H-pyrazol-3-yl)amino)pyridin-2-yl)-6-(thiophen-3-yl) piperidine-2,4-dione]"
3,0.072,"COc1ccc(N(C)c2cccc(C3(c4ccsc4)CC(=O)C(Sc4ccccc4Cl)C(=O)N3)n2)cc1 (stereo not shown) [Example 273, 3-((2-chlorophenyl)thio)-6-(6-((4-methoxyphenyl) (methyl)amino)pyridin-2-yl)-6-(thiophen-3-yl) piperidine-2,4-dione]"
4,0.157,"COc1cccc(N(C)c2cccc(C3(c4ccsc4)CC(=O)C(Sc4ccccc4Cl)C(=O)N3)n2)c1 (stereo not shown) [Example 274, 3-((2-chlorophenyl)thio)-6-(6-((3-methoxyphenyl) (methyl)amino)pyridin-2-yl)-6-(thiophen-3-yl) piperidine-2,4-dione]"
5,0.233,"CN(c1cccc(C(F)(F)F)c1)c1cccc(C2(c3ccsc3)CC(=O)C(Sc3ccccc3Cl)C(=O)N2)n1 (stereo not shown) [Example 275, 3-((2-chlorophenyl)thio)-6-(6-(methyl(3-(trifluoromethyl)phenyl)amino)pyridin-2-yl)-6-(thiophen-3-yl)piperidine-2,4-dione]"
6,0.175,"Cc1cnc(Nc2cccc(C3(c4ccsc4)CC(=O)C(Sc4ccccc4Cl)C(=O)N3)n2)[nH]1 (stereo not shown) [Example 276, 3-((2-chlorophenyl)thio)-6-(6-((5-methyl-1H-imidazol-2-yl)amino)pyridin-2-yl)-6-(thiophen-3-yl)piperidine-2,4-dione]"
7,0.337,"Cn1ccnc1Nc1cccc(C2(c3ccsc3)CC(=O)C(Sc3ccccc3Cl)C(=O)N2)n1 (stereo not shown) [Example 277, 3-((2-chlorophenyl)thio)-6-(6-((1-methyl-1H-imidazol-2-yl)amino)pyridin-2-yl)-6-(thiophen-3-yl)piperidine-2,4-dione]"
8,0.339,"Cc1cnc(N)n1-c1cccc(C2(c3ccsc3)CC(=O)C(Sc3ccccc3Cl)C(=O)N2)n1 (stereo not shown) [Example 278, 6-(6-(2-amino-5-methyl-1H-imidazol-1-yl)pyridin-2-yl)-3-((2-chloro-phenyl)thio)-6-(thiophen-3-yl)piperidine-2,4-dione]"
9,0.272,"CN(c1ccc(Cl)cc1)c1cccc(C2(c3ccsc3)CC(=O)C(Sc3ccccc3Cl)C(=O)N2)n1 (stereo not shown) [Example 279, 6-(6-((4-chlorophenyl) (methyl)amino)pyridin-2-yl)-3-((2-chlorophenyl)thio)-6-(thiophen-3-yl) piperidine-2,4-dione]"
10,0.057,"O=C1CC(c2ccsc2)(c2cccc(NS(=O)(=O)N3CCC3)n2)NC(=O)C1Sc1ccccc1Cl (stereo not shown) [Example 286, N-(6-(5-((2-chlorophenyl)thio)-4,6-dioxo-2-(thiophen-3-yl)piperidin-2-yl)pyridin-2-yl)azetidine-1-sulfonamide]"
11,0.01,"Cc1csc(Nc2cccc(C3(c4ccsc4)CC(=O)C(Sc4ccccc4Cl)C(=O)N3)n2)n1 (stereo not shown) [Example 287, 3-((2-chlorophenyl)thio)-6-(6-((4-methylthiazol-2-yl)amino)pyridin-2-yl)-6-(thiophen-3-yl)piperidine-2,4-dione]"
12,0.141,"Cc1cnc(Nc2cccc(C3(c4ccsc4)CC(=O)C(Sc4ccccc4Cl)C(=O)N3)n2)s1 (stereo not shown) [Example 288, 3-((2-chlorophenyl)thio)-6-(6-((5-methylthiazol-2-yl)amino)pyridin-2-yl)-6-(thiophen-3-yl)piperidine-2,4-dione]"
13,0.017,O=C1CC(c2ccsc2)(c2cccc(Nc3cccc(CO)c3)n2)NC(=O)C1Sc1ccccc1Cl (stereo not shown) [Example 290]
14,0.081,"O=C1CC(c2ccsc2)(c2cccc(Nc3ccc(F)cc3)n2)NC(=O)C1Oc1ccccc1Cl (stereo not shown) [Example 295, 3-(2-chlorophenoxy)-6-[6-(4-fluoroanilino)-2-pyridyl]-6-(3-thienyl)piperidine-2,4-dione]"
15,0.039,"O=C1CC(c2ccsc2)(c2cccc(N[C@H](CO)c3ccc(F)c(Cl)c3)n2)NC(=O)C1Sc1ccccc1Cl (stereo partly drawn) [Example 296, 6-(6-(((S)-1-(3-chloro-4-fluorophenyl)-2-hydroxy-ethyl)amino)pyridin-2-yl)-3-((2-chlorophenyl)thio)-6-(thiophen-3-yl) piperidine-2,4-dione]"
16,0.149,"CC[C@@H](Nc1cccc(C2(c3ccsc3)CC(=O)C(Sc3ccccc3Cl)C(=O)N2)n1)c1ccc(F)c(Cl)c1 (stereo partly drawn) [Example 297, 6-(6-(((R)-1-(3-chloro-4-fluorophenyl)propyl)amino)pyridin-2-yl)-3-((2-chlorophenyl)thio)-6-(thiophen-3-yl)piperidine-2,4-dione]"
17,0.144,"O=C1CC(c2ccsc2)(c2cccc(OCc3ccc(F)cc3)n2)NC(=O)C1Sc1ccccc1Cl (stereo not shown) [Example 300, 3-((2-chlorophenyl)thio)-6-(6-((4-fluorobenzyl)oxy)pyridin-2-yl)-6-(thiophen-3-yl)piperidine-2,4-dione]"

row,IC50 [µM],Compound
1,0.092,CC(Oc1cccc(C2(c3ccsc3)CC(=O)C(Sc3ccccc3Cl)C(=O)N2)n1)c1ccc(F)cc1 (stereo not shown) [Example 301]
2,0.021,"CCC(Nc1cccc(C2(c3ccsc3)CC(=O)C(Sc3ccccc3Cl)C(=O)N2)n1)c1ccc(F)cc1 (stereo not shown) [Example 304, 3-((2-chlorophenyl)thio)-6-(6-((1-(4-fluoro-phenyl)propyl)amino)pyridin-2-yl)-6-(thiophen-3-yl)piperidine-2,4-dione]"
3,0.025,CCC(Oc1cccc(C2(c3ccsc3)CC(=O)C(Sc3ccccc3Cl)C(=O)N2)n1)c1ccc(F)cc1 (stereo not shown) [Example 305]
4,0.129,"O=C1CC(c2ccsc2)(c2cccc(OC3CCC(F)(F)CC3)n2)NC(=O)C1Sc1ccccc1Cl (stereo not shown) [Example 306, 3-((2-chlorophenyl)thio)-6-(6-((4,4-difluoro-cyclohexyl)oxy)pyridin-2-yl)-6-(thiophen-3-yl)piperidine-2,4-dione]"
5,0.095,"CC(O)c1cccc(Nc2cccc(C3(c4ccsc4)CC(=O)C(Sc4ccccc4Cl)C(=O)N3)n2)c1 (stereo not shown) [Example 307, 3-((2-chlorophenyl)thio)-6-(6-((3-(1-hydroxy-ethyl)phenyl)amino)pyridin-2-yl)-6-(thiophen-3-yl)piperidine-2,4-dione]"
6,0.825,"O=C1CC(c2ccsc2)(c2cccc(OCC3CCCCC3)n2)NC(=O)C1Sc1ccccc1Cl (stereo not shown) [Example 308, 3-((2-chlorophenyl)thio)-6-(6-(cyclohexylmethoxy)pyridin-2-yl)-6-(thiophen-3-yl)piperidine-2,4-dione]"
7,0.408,"CN(c1cccc(CO)c1)c1cccc(C2(c3ccsc3)CC(=O)C(Sc3ccccc3Cl)C(=O)N2)n1 (stereo not shown) [Example 309, 3-((2-chlorophenyl)thio)-6-(6-((3-(hydroxymethyl)phenyl)(methyl)amino)pyridin-2-yl)-6-(thiophen-3-yl)piperidine-2,4-dione]"
8,0.365,"CN(c1cccc(CO)c1)c1cccc(C2(c3ccsc3)CC(=O)C(Sc3ccccc3Cl)C(=O)N2)n1 (stereo not shown) [Example 310, 3-((2-chlorophenyl)thio)-6-(6-((3-(hydroxymethyl)phenyl)(methyl)amino)pyridin-2-yl)-6-(thiophen-3-yl)piperidine-2,4-dione]"
9,0.59,"CC(Oc1cccc(C2(c3ccsc3)CC(=O)C(Sc3ccccc3Cl)C(=O)N2)n1)c1ccc(Cl)cc1 (stereo not shown) [Example 311, 6-(6-(1-(4-chlorophenyl)ethoxy)pyridin-2-yl)-3-((2-chlorophenyl)thio)-6-(thiophen-3-yl)piperidine-2,4-dione]"
10,0.119,"CC(Oc1cccc(C2(c3ccsc3)CC(=O)C(Sc3ccccc3Cl)C(=O)N2)n1)c1cccc(F)c1 (stereo not shown) [Example 312, 3-((2-chlorophenyl)thio)-6-(6-(1-(3-fluorophenyl)ethoxy)pyridin-2-yl)-6-(thiophen-3-yl)piperidine-2,4-dione]"
11,0.105,"CC(Oc1cccc(C2(c3ccsc3)CC(=O)C(Sc3ccccc3Cl)C(=O)N2)n1)c1ccc(F)c(F)c1 (stereo not shown) [Example 313, 3-((2-chlorophenyl)thio)-6-(6-(1-(3,4-difluoro-phenyl)ethoxy)pyridin-2-yl)-6-(thiophen-3-yl) piperidine-2,4-dione]"
12,0.014,"O=C1CC(c2ccsc2)(c2cccc(Oc3ccc(C(F)(F)F)cc3)n2)NC(=O)C1Sc1ccccc1Cl (stereo not shown) [Example 315, 3-(2-chlorophenyl)sulfanyl-6-(3-thienyl)-6-[6-[4-(trifluoromethyl)phenoxy]-2-pyridyl]piperidine-2,4-dione]"
13,0.225,"O=C1CC(c2ccsc2)(c2cccc(Nc3ccc(F)nc3)n2)NC(=O)C1Sc1ccccc1Cl [Example 317, (6R)-3-(2-chlorophenyl) sulfanyl-6-[6-[(6-fluoro-3-pyridyl)amino]-2-pyridyl]-6-(3-thienyl) piperidine-2,4-dione]"
14,0.01,"O=C1C[C@](c2ccc(N3CCOCC3)cc2)(c2cccc(Oc3ccc(F)c(F)c3)n2)NC(=O)C1Sc1ccccc1Cl (stereo partly drawn) [Example 318, (6S)-3-(2-chlorophenyl) sulfanyl-6-[6-(3,4-difluoro-phenoxy)-2-pyridyl]-6-(4-morpholinophenyl) piperidine-2,4-dione]"
15,0.197,"CC(C)c1cc(F)ccc1Oc1cccc([C@@]2(c3ccsc3)CC(=O)C(Sc3ccccc3Cl)C(=O)N2)n1 (stereo partly drawn) [Example 319, (6S)-3-(2-chlorophenyl) sulfanyl-6-[6-(4-fluoro-2-isopropyl-phenoxy)-2-pyridyl]-6-(3-thienyl) piperidine-2,4-dione]"
16,0.093,"COC1CCC(Oc2cccc(C3(c4ccsc4)CC(=O)C(Sc4ccccc4Cl)C(=O)N3)n2)CC1 (stereo not shown) [Example 320, 5-(2-chlorophenyl)sulfanyl-4-hydroxy-2-[6-(4-methoxycyclohexoxyl)-2-pyridyl]-2-(3-thienyl)-1,3-dihydropyridin-6-one]"
17,0.246,"O=C1CC(c2ccsc2)(c2cccc(OC3CCCc4ccccc43)n2)NC(=O)C1Sc1ccccc1Cl (stereo not shown) [Example 321, 5-(2-chlorophenyl)sulfanyl-4-hydroxy-2-(6-tetralin-1-yloxy-2-pyridyl)-2-(3-thienyl)-1,3-dihydro-pyridin-6-one]"

# From US20170001990A1 (Genentech, Inc., priority 2014, published 2017)
